# Results as given in patent US20210318318A1, “Kinase Activity In Tumors” (Institute For Cancer Research d/b/a The Research Institute …, priority 2018, published 2021).
# Legend:
# Type in all cases: cell-based, human
# COV362 = experiment: Short-term growth assay (CellTiter-Glo cell viability), kinase inhibitors
# Protocol: (§1) Cell viability was determined by Cell Titer Glo analysis.
# COV362 cells were treated with increasing concentrations of A-674563 and cell viability assessed by Cell Titer Glo according to manufacturer's instructions. Data represent the mean of six replicates.
# (§2) To explore the therapeutic potential of the HGSOC kinome signature, a detailed molecular analysis of protein levels/activity, growth and survival functions was carried out in a panel of recently validated HGSOC cell lines (Coscia et al., Nat. Commun., 2016, 7, 12645) that harbor commonly encountered HGSOC mutations and genetic rearrangements (see, FIG. 5A).
# (§3) For short-term growth assays, 3000-5000 cells were plated per well in 96-well plates and allowed to adhere and equilibrate overnight. Drug was added the following morning and after 120 hours of drug treatment, cell viability was assessed using the CellTiter-Glo Luminescent cell viability assay according to manufacturer (Promega). Students t tests were performed for statistical analyses and p values ≤0.05 were considered significant. For colony formation assays, cells were plated in 24-well dishes (3000-5000 cells per well) and incubated overnight before continuous drug treatment for 14 days, with drug and media replaced twice weekly. At the end of treatment, cells were rinsed with PBS and fixed with chilled methanol for 10 minutes at −20° C. Methanol was removed by aspiration, and cells were stained with 0.5% crystal violet in 20% methanol for 20 minutes at room temperature, washed with distilled water, and scanned.
# OVCAR4 cells = experiment: Drug growth inhibition in cells depleted of dark kinases by siRNA (Cell Titer Glo); settings: increasing doses of drug
# Protocol: OVCAR4 cells were transfected with control nontargeting or dark kinase siRNAs and treated with escalating doses of appropriate drugs.
# To explore if blocking dark kinases AAK1, STK38 or MRCKA activity in combination with current therapies improves drug efficacy, OVCAR4 cells depleted of AAK1, STK38 or MRCKA were treated with increasing doses of carboplatin, olaparib, JQ1, or a variety of kinase inhibitors in clinical trials for HGSOC.
# siRNA transfections were performed using 25 nM siRNA duplex and the reverse transfection protocol. 3000-5000 cells per well were added to 96 well plates with media containing the siRNA and transfection reagent (Lipofectamine RNAiMax) according to the manufacturer's instructions. In experiments where inhibitors were used, the inhibitor was added at the time of transfection. Cells were allowed to grow for 72-120 hours post-transfection prior to CellTiter Glo (Promega) analysis. Two-to-three independent experiments were performed with each cell line and siRNA. Students t tests were performed for statistical analyses and p values ≤0.05 were considered significant. For western blot studies, the same procedure was performed with volumes and cell numbers proportionally scaled to a 60 mm or 10 cm dish, and cells were collected 24-72 hours post-transfection. siRNA product numbers and manufacturers are listed in Table 5.
# OVCAR4 = experiment: Short-term growth assay (CellTiter-Glo cell viability), kinase inhibitors
# Protocol: as §1, §2, §3
# OVSAHO = experiment: as above
# Protocol: as §1, §2, §3
# SNU-119 = experiment: as above
# Protocol: as §1, §2, §3
# Kuramochi = experiment: as above
# Protocol: as §1, §2, §3
smiles,measurement,setting,value
NC(=O)Nc1cc(-c2cccc(F)c2)sc1C(=O)N[C@H]1CCCNC1 [AZD7762],"Kinase inhibition profile of HGSOC cells (growth inhibition, Cell Titer Glo)",COV362; drug 0.312 uM,0.05872
same,growth inhibition by drug with MRCKA knockdown relative to non-targeting control siRNA,OVCAR4 cells,enhanced growth inhibition
same,"Kinase inhibition profile of HGSOC cells (growth inhibition, Cell Titer Glo)",OVCAR4; drug 0.312 uM,0
same,"Kinase inhibition profile of HGSOC cells (growth inhibition, Cell Titer Glo)",OVSAHO; drug 0.312 uM,0.7988
same,"Kinase inhibition profile of HGSOC cells (growth inhibition, Cell Titer Glo)",SNU-119; drug 0.312 uM,0
same,"Kinase inhibition profile of HGSOC cells (growth inhibition, Cell Titer Glo)",Kuramochi; drug 0.312 uM,0.663
COc1cc(Nc2ncc3c(n2)-c2ccc(Cl)cc2C(c2c(F)cccc2OC)=NC3)ccc1C(=O)O [Alisertib],"Kinase inhibition profile of HGSOC cells (growth inhibition, Cell Titer Glo)",COV362; drug 0.312 uM,1.075
same,"Kinase inhibition profile of HGSOC cells (growth inhibition, Cell Titer Glo)",OVCAR4; drug 0.312 uM,0.1016
same,"Kinase inhibition profile of HGSOC cells (growth inhibition, Cell Titer Glo)",OVSAHO; drug 0.312 uM,0.5387
same,"Kinase inhibition profile of HGSOC cells (growth inhibition, Cell Titer Glo)",SNU-119; drug 0.312 uM,1.057
same,"Kinase inhibition profile of HGSOC cells (growth inhibition, Cell Titer Glo)",Kuramochi; drug 0.312 uM,0.5199
CCOc1ccn(-c2ccc(F)cc2)c(=O)c1C(=O)Nc1ccc(Oc2ccnc(N)c2Cl)c(F)c1 [BMS777607],"Kinase inhibition profile of HGSOC cells (growth inhibition, Cell Titer Glo)",COV362; drug 1.2 uM,0.9079
same,"Kinase inhibition profile of HGSOC cells (growth inhibition, Cell Titer Glo)",OVCAR4; drug 1.2 uM,1.062
same,"Kinase inhibition profile of HGSOC cells (growth inhibition, Cell Titer Glo)",OVSAHO; drug 1.2 uM,1.102
same,"Kinase inhibition profile of HGSOC cells (growth inhibition, Cell Titer Glo)",SNU-119; drug 1.2 uM,1.028
same,"Kinase inhibition profile of HGSOC cells (growth inhibition, Cell Titer Glo)",Kuramochi; drug 1.2 uM,1.007
COc1cc2c(Oc3ccc4[nH]c(C)cc4c3F)ncnc2cc1OCCCN1CCCC1 [Cederinib],"Kinase inhibition profile of HGSOC cells (growth inhibition, Cell Titer Glo)",COV362; drug 1.2 uM,0.9246
same,"Kinase inhibition profile of HGSOC cells (growth inhibition, Cell Titer Glo)",OVCAR4; drug 1.2 uM,1.089
same,"Kinase inhibition profile of HGSOC cells (growth inhibition, Cell Titer Glo)",OVSAHO; drug 1.2 uM,1.089
same,"Kinase inhibition profile of HGSOC cells (growth inhibition, Cell Titer Glo)",SNU-119; drug 1.2 uM,0.6258
same,"Kinase inhibition profile of HGSOC cells (growth inhibition, Cell Titer Glo)",Kuramochi; drug 1.2 uM,0.9466
CCS(=O)(=O)N1CCN(c2ccc(Nc3ncc(C(N)=O)c(NC4CC4)n3)cc2)CC1 [Cerdulatinib],"Kinase inhibition profile of HGSOC cells (growth inhibition, Cell Titer Glo)",COV362; drug 2.5 uM,−0.008256
same,"Kinase inhibition profile of HGSOC cells (growth inhibition, Cell Titer Glo)",OVCAR4; drug 2.5 uM,0.5051
same,"Kinase inhibition profile of HGSOC cells (growth inhibition, Cell Titer Glo)",OVSAHO; drug 2.5 uM,1
same,"Kinase inhibition profile of HGSOC cells (growth inhibition, Cell Titer Glo)",SNU-119; drug 2.5 uM,0.8395
same,"Kinase inhibition profile of HGSOC cells (growth inhibition, Cell Titer Glo)",Kuramochi; drug 2.5 uM,1
CS(=O)(=O)N1CCN(Cc2cc3nc(-c4cccc5[nH]ncc45)nc(N4CCOCC4)c3s2)CC1 [GDC-0941],growth inhibition by drug combined with knockdown of STK38,OVCAR4 cells,improved growth inhibition
CCc1cc(Nc2nccc(-c3c(-c4ccc(OC)c(C(=O)Nc5c(F)cccc5F)c4)nc4ccccn34)n2)c(OC)cc1N1CCC(N2CCN(S(C)(=O)=O)CC2)CC1 [GSK529A],"Kinase inhibition profile of HGSOC cells (growth inhibition, Cell Titer Glo)",COV362; drug 5 uM,0.9731
same,"Kinase inhibition profile of HGSOC cells (growth inhibition, Cell Titer Glo)",OVCAR4; drug 5 uM,0.5226
same,"Kinase inhibition profile of HGSOC cells (growth inhibition, Cell Titer Glo)",OVSAHO; drug 5 uM,0.6574
same,"Kinase inhibition profile of HGSOC cells (growth inhibition, Cell Titer Glo)",SNU-119; drug 5 uM,0.6579
same,"Kinase inhibition profile of HGSOC cells (growth inhibition, Cell Titer Glo)",Kuramochi; drug 5 uM,0.9732
Cc1sc2c(c1C)C(c1ccc(Cl)cc1)=N[C@@H](CC(=O)OC(C)(C)C)c1nnc(C)n1-2 [JQ1],growth inhibition by drug combined with depletion of AAK1,OVCAR4 cells,enhanced growth inhibition
same,growth inhibition by drug with MRCKA knockdown relative to non-targeting control siRNA,OVCAR4 cells,enhanced growth inhibition
CNc1ncc2cc(-c3cc(NC(=O)NCCC(C)(C)C)c(F)cc3C)c(C)nc2n1 [LY300],"Kinase inhibition profile of HGSOC cells (growth inhibition, Cell Titer Glo)",COV362; drug 1.2 uM,0.2612
same,"Kinase inhibition profile of HGSOC cells (growth inhibition, Cell Titer Glo)",OVCAR4; drug 1.2 uM,0.6062
same,"Kinase inhibition profile of HGSOC cells (growth inhibition, Cell Titer Glo)",OVSAHO; drug 1.2 uM,0.166
same,"Kinase inhibition profile of HGSOC cells (growth inhibition, Cell Titer Glo)",SNU-119; drug 1.2 uM,0.6599
same,"Kinase inhibition profile of HGSOC cells (growth inhibition, Cell Titer Glo)",Kuramochi; drug 1.2 uM,0.09151
